Results on one compound are retold here after patent publication US11357774B2, “Use of a quinoline sulfonyl compound for treatment of inflammation, inflammatory disorders, autoimmune disorders and malaria” (priority 2019, dated 2022).

Molecules are shown by their SMILES.

In data set [1] the test system is mouse organs / tumor. The settings on record: cited from earlier work.
Data set [2] has as its system human fibroblast-like synoviocytes from rheumatoid arthritis patients (HFLS-RA). The data set is described as follows: Viability test, HFLS-RA cells. In kind it is cell-based. The settings on record: 6 hours, IL-1β 10 ng/mL, VR23 1.25-5.0 μM, HCQ 7.5-30 μM. The protocol: The values presented are the mean±SEM (n=3).
The CCK-8 assay was used to count viable cells under the various treatment conditions. Briefly, cells were cultured in 11 columns of a 96-well clustered plate, with 5,000 cells in 100 μL of culture medium per well, excluding one column for a media-only control. The plate was incubated overnight at 37° C. in the humidified conditions, followed by treatment with test compounds diluted in the culture medium (10 μL). Each column was treated with a different condition so that each treatment could have 8 repeats. […] The absorbance was measured using an automatic plate reader (Synergy H4 Hybrid Multi-Mode Microplate Reader, BioTek, Montreal, Canada) at 450 nm wavelength. The cell viability of each treatment sample was determined by using the following equation (%)=(Abstrtmt-Absmedia)/(AbsuT-Absmedia)*100, where Abstrtmt is the absorbance value of cells with the various treatment conditions; Absmedia is the absorbance of the well containing media only; AbsuT is the absorbance of the wells with untreated cells.
This finding was extended to human cells relevant to autoimmune diseases. […] Cytokine levels in cell culture supernatants were determined by a single-analyte ELISA. […] The cytokine secretion was measured in cell culture supernatants by a single-analyte ELISA.

In data set [3] the test system is mouse lung tissues with ALI caused by LPS. Description: Histopathological analysis of lung tissues of mice with LPS-induced ALI. The settings on record: LPS 0.4 mg/kg, 24 hours, VR23 30 mg/kg, DEX 4 mg/kg. It counts as in vivo. The protocol: Six to eight week old female BALB/c mice strain 028 (Charles River Laboratories, QC, Canada) were fed regularly with laboratory chow and water upon arrival at the Laurentian University Animal Care Facility (Sudbury, ON, Canada). To determine a useful dose of LPS, three mice per group were treated for 24 hours with the following three different conditions: (i) no LPS, (ii) 0.25 mg of LPS per kg of body weight, and (iii) 0.50 mg of LPS per kg of body weight. The different concentrations of LPS were administered intranasally to the three BALB/c mice per concentration. After the animals were sacrificed, the bronchoalveolar lavage fluid (BALF) of each mouse was collected and analyzed for LPS-induced inflammatory responses. […] Experimental design involving the use of VR23 was based on a previous acute lung injury (ALI) instillation by Wei and Huang^26. Briefly, mice were divided into 5 groups, with 3-5 mice per group: no lung injury (i.e., no treat), sham treated, LPS-only, LPS+DEX, and LPS+VR23. […] Bronchoalveolar lavage fluid was collected and the number of cells infiltrated into the bronchoalveolar fluid were counted (FIG. 2). […]
At 24-hour post-induction of lung injury with LPS, lung tissues were embedded in the paraffin block, followed by slicing them into 10 μm sections using a microtome. […] For microscopy, at least 10 fields were analyzed for each sample. […]

For data set [4], the system named is IL-6 secretion in SW-982 synovial cells. Description: IL-6 secretion in IL-1β-stimulated SW-982 synovial cells (ELISA). In kind it is cell-based, human. The settings on record: SW-982, IL-1β 1 ng/mL, 6 hours; VR23 10 μM, HCQ 60 μM. The protocol: The mean±SEM (n=2) values were determined by a Dunnett's test.
The enzyme-linked immunosorbent assay (ELISA) is a quantitative measurement based on sandwich-based enzyme linking, using a protein-specific capture antibody to determine the levels of single or multiple chemokines and cytokines.
The measurement was carried out with a single-analyte ELISA. […] While not wishing to be limited by theory, cytokine IL-6 is strongly implicated to the progress of rheumatoid arthritis^29.
(In general: ELISA stands for enzyme-linked immunosorbent assay.)

Data set [5] has as its system PBMC cells. The data set is described as follows: Sulforhodamine B (SRB) assay, IC50 on PBMC. In kind it is cell-based, human. The protocol:
The sulforhodamine B (SRB) assay^21 was used to determine the drug concentration that half of the cell growth/viability is inhibited (IC50). Cells were cultured in 96-well plates, with 5,000 cells in 100 μL of culture medium per well. The rest of the protocol was the same as described previously^22,23.
Data shown in Table 1 are IC50 values of VR23 and other compounds, which were determined using sulforhodamine B (SRB) assays on immunologically relevant cells (THP-1, SW-982 and PBMC). […] Two well-known proteasome inhibitors, BTZ and CFZ, were included for comparison since VR23 is also a proteasome inhibitor, albeit targeting different subunits^2. The widely used anti-inflammatory DEX was included, also for comparison.
THP-1, SW982 and PBMC cells (5,000 cells/well) were treated with each compound for 48 hours. The IC50, the drug concentration reducing cell growth/viability by 50%, was determined by a dose-response four-parameter curve (generated with GraphPad Prism V. 4.02) formed by 10 two-fold dilutions (n=3).
A general note: Sulforhodamine B stains cellular protein and so reports cell mass.

A word on the IC50: it is the concentration at which inhibition is half-maximal. Higher therefore signals a need for much substance. As for `O=[N+]([O-])c1ccc(S(=O)(=O)N2CCN(c3ccnc4cc(Cl)ccc34)CC2)c([N+](=O)[O-])c1` [VR23, 7-chloro-4-(4-(2,4-dinitrophenylsulfonyl)piperazin-1-yl)quinoline], in data set [1] (animal-based studies), the anti-tumor activity result was “strong anti-tumor activity” and the “toxicity to mouse organs” value is “without any notable toxic side effects to mouse organs”. In addition, the “toxic side effects of paclitaxel in combination” value in data set [1] (used in combination with paclitaxel (Tax)) is recorded as “reduces toxic side effects caused by paclitaxel”. Besides, the cell viability result in data set [2] is “none of the conditions examined significantly affected the viability”. Also, in data set [3], the “alveolar inflammation caused by LPS (H & E histopathology)” value is “largely prevented”. The “secretion of IL-6” value in data set [4] was “substantially reduced the secretion of IL-6”. In data set [5] (48 hours), this compound returned an IC50 of 3.14 ± 0.26 µM. This compound also showed an IC50 in data set [5] (Homo sapiens, 48 h) of 3 µM.
